Laboratory results published in ChEMBL document CHEMBL1201862, “PubChem BioAssay data set” (2004).
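Growth conditions: 96-well plates. Treatment: test compound, 48 hours, 5 concentrations. Analysis: linear interpolation between bracketing concentrations; unreached endpoints set to highest concentration. Here, GI50 denotes the concentration required for 50% inhibition of growth.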 Active and inactive are the calls of the source. Rule as the data show it: active = GI50 up to about 1.1 µM and inactive = higher.

Assays:
Assay in all cases: inhibition of tumour cell growth, NCI panel, 48 h
[1] = test system: LOX IMVI
[2] = test system: UACC-257
[3] = test system: HL-60
[4] = test system: SK-MEL-5
[5] = test system: SK-OV-3
[6] = test system: UACC-62
[7] = test system: SK-MEL-2
[8] = test system: IGROV-1
[9] = test system: NCI-H23
[10] = test system: HOP-92
[11] = test system: SF-539
[12] = test system: A498
[13] = test system: NCI-H226
[14] = test system: 786-0
[15] = test system: M19-MEL
[16] = test system: UO-31
[17] = test system: EKVX
[18] = test system: MOLT-4
[19] = test system: PC-3
[20] = test system: MCF7

Row | Structure (SMILES) | GI50 [1] | GI50 [2] | GI50 [3] | GI50 [4] | GI50 [5] | GI50 [6] | GI50 [7] | GI50 [8] | GI50 [9] | GI50 [10] | GI50 [11] | GI50 [12] | GI50 [13] | GI50 [14] | GI50 [15] | GI50 [16] | GI50 [17] | GI50 [18] | GI50 [19] | GI50 [20]
1 | Clc1ccc(C[P+](c2ccccc2)(c2ccccc2)c2ccccc2)cc1Cl | 1.55 µM (inactive) | 2.14 µM (inactive) | 1.03 µM (active) | 1.42 µM (inactive) | 7.35 µM (inactive) | 1.49 µM (inactive) | 2.15 µM (inactive) | 2.51 µM (inactive) | 2.62 µM (inactive) | 1.62 µM (inactive) | 4.4 µM (inactive) | 12.6 µM (inactive) | 2.8 µM (inactive) | 4.85 µM (inactive) | 1.79 µM (inactive) |  |  |  |  | 
2 | O=C1OC(c2ccccc2)(c2ccccc2)c2ccc3ccc(F)cc3c21 | 60.3 µM (inactive) | 37.1 µM (inactive) | 9.4 µM (inactive) | 20 µM (inactive) | > 100 µM (inactive) | 26.9 µM (inactive) | > 100 µM (inactive) | > 100 µM (inactive) | 52.8 µM (inactive) | 2.66 µM (inactive) | > 100 µM (inactive) | > 100 µM (inactive) | > 100 µM (inactive) | > 100 µM (inactive) | 20.7 µM (inactive) | 79.4 µM (inactive) | 53.3 µM (inactive) | > 100 µM (inactive) |  | 
3 | CCCCCCCCCCNC(=S)OC | 15.8 µM (inactive) | 23.8 µM (inactive) | 16.7 µM (inactive) | 23 µM (inactive) | > 100 µM (inactive) | 25 µM (inactive) |  | 25.7 µM (inactive) | > 100 µM (inactive) | 13.4 µM (inactive) | 64.7 µM (inactive) | 46.2 µM (inactive) |  | 49.3 µM (inactive) | 29 µM (inactive) | 15.8 µM (inactive) | 80 µM (inactive) | 5.83 µM (inactive) |  | 
4 | CC(C)c1cccc2sc(NC(=O)C(=O)CC(=O)c3ccc(F)cc3)nc12 | > 100 µM (inactive) | > 100 µM (inactive) | > 100 µM (inactive) | > 100 µM (inactive) | > 100 µM (inactive) | > 100 µM (inactive) | > 100 µM (inactive) | > 100 µM (inactive) | > 100 µM (inactive) | > 100 µM (inactive) | > 100 µM (inactive) | > 100 µM (inactive) | > 100 µM (inactive) | > 100 µM (inactive) | > 100 µM (inactive) | > 100 µM (inactive) | > 100 µM (inactive) |  |  | 
5 | CC(C)(C)OC(=O)NC(Cc1ccccc1)C(=S)N1CCCC1 (centres undefined) | > 87.9 µM (inactive) | 89.1 µM (inactive) | 89.5 µM (inactive) | 57 µM (inactive) | > 100 µM (inactive) | > 80.4 µM (inactive) | > 100 µM (inactive) | > 100 µM (inactive) | 48.8 µM (inactive) | 31.7 µM (inactive) | > 100 µM (inactive) | > 100 µM (inactive) | > 100 µM (inactive) | > 100 µM (inactive) | > 100 µM (inactive) | 40.4 µM (inactive) | 52.6 µM (inactive) | 42.6 µM (inactive) |  | 
6 | CC(=O)c1cc([N+](=O)[O-])ccc1OCC(=O)O | > 100 µM (inactive) | > 100 µM (inactive) | > 100 µM (inactive) | > 100 µM (inactive) | > 100 µM (inactive) | > 100 µM (inactive) | > 100 µM (inactive) | > 100 µM (inactive) | > 100 µM (inactive) | > 100 µM (inactive) | > 100 µM (inactive) | > 100 µM (inactive) | > 100 µM (inactive) | > 100 µM (inactive) | > 100 µM (inactive) | > 100 µM (inactive) | > 100 µM (inactive) | > 100 µM (inactive) |  | 
7 | OCCN1CCN(CC/C=C2/c3ccccc3Sc3ccc(Cl)cc32)CC1 | 8.81 µM (inactive) | 2.52 µM (inactive) | 1.76 µM (inactive) | 5.89 µM (inactive) | 15.8 µM (inactive) | 2.59 µM (inactive) | 14.9 µM (inactive) | 15.2 µM (inactive) | 15.7 µM (inactive) | 8.45 µM (inactive) | 12.9 µM (inactive) | 14.5 µM (inactive) | 14.6 µM (inactive) |  | 1.94 µM (inactive) | 13.3 µM (inactive) | 16.8 µM (inactive) | 11.4 µM (inactive) |  | 
8 | COc1ccc(-c2onc(-c3ccc([N+](=O)[O-])cc3)c2C2=NCCCN2)cc1 | 51.9 µM (inactive) | 87.7 µM (inactive) | 36.9 µM (inactive) | 30.2 µM (inactive) |  | > 100 µM (inactive) | > 100 µM (inactive) | > 100 µM (inactive) | > 100 µM (inactive) |  | > 100 µM (inactive) |  | 38.8 µM (inactive) | > 100 µM (inactive) | > 100 µM (inactive) | 18.4 µM (inactive) | > 100 µM (inactive) | 76.2 µM (inactive) |  | 
9 | CCCCc1c2c(nc3c1CCCC3=O)C(=O)CCC2 | > 100 µM (inactive) | > 100 µM (inactive) | > 100 µM (inactive) | > 100 µM (inactive) | > 100 µM (inactive) | > 100 µM (inactive) | > 100 µM (inactive) | > 100 µM (inactive) | > 100 µM (inactive) | > 100 µM (inactive) | > 100 µM (inactive) | > 100 µM (inactive) | > 100 µM (inactive) | > 100 µM (inactive) | > 100 µM (inactive) | > 100 µM (inactive) | > 100 µM (inactive) | > 100 µM (inactive) |  | 
10 | CN(C)CCCCN1c2ccccc2Sc2ccc(C(=O)c3ccccc3)cc21 | 1.8 µM (inactive) | 1.94 µM (inactive) | 1.85 µM (inactive) | 1.82 µM (inactive) | 13 µM (inactive) | 2.37 µM (inactive) | 2.71 µM (inactive) | 2.9 µM (inactive) | 6.59 µM (inactive) | 2.44 µM (inactive) | 3.29 µM (inactive) | 13.8 µM (inactive) | 5.96 µM (inactive) | 1.82 µM (inactive) |  | 2.6 µM (inactive) | 6.65 µM (inactive) | 2.21 µM (inactive) | 2.32 µM (inactive) | 1.93 µM (inactive)
11 | C=C1C2Oc3ccccc3C1N(c1ccccc1)O2 (centres undefined) | 13.7 µM (inactive) | 40.6 µM (inactive) | 30.3 µM (inactive) |  | 64.3 µM (inactive) |  | 9.14 µM (inactive) | 34.4 µM (inactive) | > 10 µM (inactive) |  | 23.8 µM (inactive) |  | 37.9 µM (inactive) | 41.5 µM (inactive) | 42.7 µM (inactive) | 47.9 µM (inactive) | 42.9 µM (inactive) | 20 µM (inactive) |  | 
12 | O=C1C=C(C2=CC(=O)C(=O)c3ccccc32)c2ccccc2C1=O | 3.87 µM (inactive) | 6.24 µM (inactive) | 3.03 µM (inactive) | 2.85 µM (inactive) | 44.1 µM (inactive) | 5.37 µM (inactive) | 19.5 µM (inactive) | 28.8 µM (inactive) | 5.07 µM (inactive) | 11.3 µM (inactive) | 19.4 µM (inactive) | 46.6 µM (inactive) | 38.5 µM (inactive) | 13 µM (inactive) |  | 6.14 µM (inactive) | 34.8 µM (inactive) | 2.44 µM (inactive) | 15.2 µM (inactive) | 9.98 µM (inactive)
13 | CCN(CC)CCCNC(=O)C1COc2cc(-c3cc(=O)c4ccccc4o3)ccc2O1 (centres undefined) | 23.6 µM (inactive) | 21.6 µM (inactive) | 36.9 µM (inactive) | 19.7 µM (inactive) | > 100 µM (inactive) | 45.9 µM (inactive) |  | 68.1 µM (inactive) | > 100 µM (inactive) | > 100 µM (inactive) | 19.5 µM (inactive) | 48.2 µM (inactive) | 76 µM (inactive) | 66.8 µM (inactive) | 20.9 µM (inactive) | 27.4 µM (inactive) | > 100 µM (inactive) | 33.4 µM (inactive) |  | 
14 | O=c1oc2ccccc2cc1-c1ccc([N+](=O)[O-])cc1 | > 100 µM (inactive) | > 100 µM (inactive) | > 100 µM (inactive) | 53 µM (inactive) | 65.3 µM (inactive) | 89.5 µM (inactive) | > 100 µM (inactive) | > 100 µM (inactive) | > 100 µM (inactive) | > 100 µM (inactive) | 17.9 µM (inactive) | 85.5 µM (inactive) | > 100 µM (inactive) | 9.29 µM (inactive) |  | > 100 µM (inactive) | > 100 µM (inactive) | > 100 µM (inactive) | > 100 µM (inactive) | > 100 µM (inactive)
15 | Cc1cc(NC(=O)C(=O)Cc2cnc3ccccc3n2)c(S(=O)(=O)O)cc1Cl | > 100 µM (inactive) | > 100 µM (inactive) | > 100 µM (inactive) | > 100 µM (inactive) | > 100 µM (inactive) | > 100 µM (inactive) | > 100 µM (inactive) | > 100 µM (inactive) | > 100 µM (inactive) | > 100 µM (inactive) | > 100 µM (inactive) | > 100 µM (inactive) | > 100 µM (inactive) | > 100 µM (inactive) |  | > 100 µM (inactive) | > 100 µM (inactive) | > 100 µM (inactive) | > 100 µM (inactive) | > 100 µM (inactive)
16 | CN(O)C(=O)c1ccccc1 | > 100 µM (inactive) | > 100 µM (inactive) | > 100 µM (inactive) | > 100 µM (inactive) | > 100 µM (inactive) | > 100 µM (inactive) |  | > 100 µM (inactive) | > 100 µM (inactive) | > 100 µM (inactive) | > 100 µM (inactive) |  | > 100 µM (inactive) | > 100 µM (inactive) | > 100 µM (inactive) | > 100 µM (inactive) |  | > 100 µM (inactive) |  | 
